Here are results for 39 molecules from US8604023B2, “1,4-benzodiazepinone compounds and their use in treating cancer” (The Regents of the University of Michigan, priority 2009, dated 2013).

This assay concerns Ramos cells. In words: cytotoxicity in Ramos cells. Type of assay: cell-based. The settings on record: Homo sapiens. As to the method:
The compounds listed in Table 5 were tested for cytotoxicity in Ramos cells. The assay was conducted as described in K. M. Johnson et al. Chemistry & Biology 2005, 12, 485-496.

As to `CN1C(=O)C(Cc2ccc3ccccc3c2)N=C(N2CCC(NC(=O)CN)CC2)c2cc(Cl)ccc21` (stereo not drawn) [Compound V-10], the EC50 was no more than 5 µM.

`Cc1n[nH]cc1C1=NC(Cc2ccccc2Cl)C(=O)Nc2ccc(Cl)cc21` (stereo not drawn) [Compound V-40]: the EC50 lay in the range of 5 to 25 µM.

The molecule `CN1C(=O)C(Cc2ccc3ccccc3c2)N=C(c2csc(CO)n2)c2cc(Cl)ccc21` (stereo not drawn) [Compound V-16] gave an EC50 of no more than 5 µM.

Turning to `O=C1Nc2ccc(Cl)cc2C(c2cnc3[nH]c(=O)[nH]c3c2)=NC1CCc1ccccc1Cl` (stereo not drawn) [Compound V-35], the EC50 fell in the range of 5 to 25 µM.

The molecule `CN1C(=O)C(Cc2ccc3ccccc3c2)N=C(c2ccc(N)nc2)c2cc(Cl)ccc21` (stereo not drawn) [Compound V-2] displayed an EC50 of 5 to 25 µM.

`O=C1Nc2ccc(Cl)cc2C(c2ccc(N3CCOCC3)nc2)=NC1Cc1ccccc1Cl` (stereo not drawn) [Compound V-28] returned an EC50 of no more than 5 µM.

As for `CN1C(=O)C(Cc2ccc3ccccc3c2)N=C(N2CCC3(CC2)OCCO3)c2cc(Cl)ccc21` (stereo not drawn) [Compound V-5], the EC50 was no more than 5 µM.

As to `CC(=O)NC1CCN(C2=NC(Cc3ccc4ccccc4c3)C(=O)N(C)c3ccc(Cl)cc32)CC1` (stereo not drawn) [Compound V-12], the EC50 was 5 to 25 µM.

Take `O=C1Nc2ccc(Cl)cc2C(c2ccnc(N3CCNCC3)c2)=NC1Cc1ccccc1Cl` (stereo not drawn) [Compound V-25]: the EC50 lay within 5 to 25 µM.

On to `Nc1ccc(C2=NC(Cc3ccccc3Cl)C(=O)Nc3ccc(Cl)cc32)cn1` (stereo not drawn) [Compound V-18], for which the EC50 is 5 to 25 µM.

Turning to `Nc1ccc(C2=NC(Cc3ccccc3Cl)C(=O)N(C3CC3)c3ccc(Cl)cc32)cn1` (stereo not drawn) [Compound V-36], the EC50 lay within 5 to 25 µM.

`CC(=O)OCC(=O)Nc1ccc(C2=NC(Cc3ccc4ccccc4c3)C(=O)N(C)c3ccc(Cl)cc32)cn1` (stereo not drawn) [Compound V-14] yielded an EC50 of no more than 5 µM.

For the molecule `O=C1CCN(C2=NC(Cc3ccc4ccccc4c3)C(=O)Nc3ccc(Cl)cc32)CC1` (stereo not drawn) [Compound V-7], the EC50 was 5 to 25 µM.

In turn, `CN1C(=O)C(Cc2ccc3ccccc3c2)N=C(N2CCC(N)CC2)c2cc(Cl)ccc21` (stereo not drawn) [Compound V-6] gave an EC50 of 5 to 25 µM.

`CCc1ccc(CC2N=C(c3cnc(N)nc3)c3cc(Cl)ccc3NC2=O)cc1CC` (stereo not drawn) [Compound V-21] gave an EC50 of 5 to 25 µM.

With `CN1C(=O)C(Cc2ccc3ccccc3c2)N=C(N2CCC(NC(=O)OC(C)(C)C)CC2)c2cc(Cl)ccc21` (stereo not drawn) [Compound V-9], the EC50 is no less than 25 µM.

Regarding `CN1CCN(c2ccc(C3=NC(Cc4ccccc4Cl)C(=O)Nc4ccc(Cl)cc43)cn2)CC1` (stereo not drawn) [Compound V-26], the EC50 is no more than 5 µM.

On to `O=C1Nc2ccc(Cl)cc2C(c2ccncc2)=NC1Cc1ccccc1Cl` (stereo not drawn) [Compound V-19], for which the EC50 was 5 to 25 µM.

For the molecule `Nc1ccc(C2=NC(Cc3ccc4ccccc4c3)C(=O)Nc3ccc(Cl)cc32)cn1` (stereo not drawn) [Compound V-4], the EC50 was in the range of 5 to 25 µM.

With `CC(=O)N1CCN(c2ccc(C3=NC(Cc4ccccc4Cl)C(=O)Nc4ccc(Cl)cc43)cn2)CC1` (stereo not drawn) [Compound V-30], the EC50 is no more than 5 µM.

`COc1ccc(C2(O)CCN(C3=NC(Cc4ccc5ccccc5c4)C(=O)Nc4ccc(Cl)cc43)CC2)cc1` (stereo not drawn) [Compound V-8]: the EC50 was no more than 5 µM.

The molecule `CN1C(=O)C(Cc2ccc3ccccc3c2)N=C(N2CCC(O)CC2)c2cc(Cl)ccc21` (stereo not drawn) [Compound V-1] showed an EC50 of no less than 25 µM.

On to `O=C1Nc2ccc(Cl)cc2C(c2ccc(N3CC[C@@H](O)C3)nc2)=NC1Cc1ccccc1Cl` (stereo partly drawn) [Compound V-32], for which the EC50 fell in the range of 5 to 25 µM.

`CN1C(=O)C(Cc2ccc3ccccc3c2)N=C(c2ccc(NC(=O)CO)nc2)c2cc(Cl)ccc21` (stereo not drawn) [Compound V-15] registered an EC50 of 5 to 25 µM.

On to `Cc1n[nH]c(C)c1C1=NC(Cc2ccccc2Cl)C(=O)Nc2ccc(Cl)cc21` (stereo not drawn) [Compound V-41], for which the EC50 lay within 5 to 25 µM.

For `CC(=O)Nc1ccc(C2=NC(Cc3ccccc3Cl)C(=O)Nc3ccc(Cl)cc32)cn1` (stereo not drawn) [Compound V-17], the EC50 fell in the range of 5 to 25 µM.

Molecule `CN1C(=O)C(Cc2ccc3ccccc3c2)N=C(N2CCC(NC(=O)c3ccccc3)CC2)c2cc(Cl)ccc21` (stereo not drawn) [Compound V-13] displayed an EC50 of no less than 25 µM.

`Nc1cncc(C2=NC(Cc3ccccc3Cl)C(=O)Nc3ccc(Cl)cc32)c1` (stereo not drawn) [Compound V-22]: the EC50 was no less than 25 µM.

Molecule `CN1C(=O)C(Cc2ccc3ccccc3c2)N=C(c2ccc(N)cn2)c2cc(Cl)ccc21` (stereo not drawn) [Compound V-11] yielded an EC50 of no more than 5 µM.

The molecule `O=C1Nc2ccc(Cl)cc2C(c2ccc(N3CCC(CO)CC3)nc2)=NC1Cc1ccccc1Cl` (stereo not drawn) [Compound V-29] yielded an EC50 of no more than 5 µM.

For the molecule `CN1C(=O)C(Cc2ccc3ccccc3c2)N=C(c2cnc(N)cn2)c2cc(Cl)ccc21` (stereo not drawn) [Compound V-3], the EC50 was no less than 25 µM.

`O=C1Nc2ccc(Cl)cc2C(c2ccc(N3CCCC3)nc2)=NC1Cc1ccccc1Cl` (stereo not drawn) [Compound V-31] yielded an EC50 of no more than 5 µM.

`O=C1Nc2ccc(Cl)cc2C(c2cn[nH]c2)=NC1Cc1ccccc1Cl` (stereo not drawn) [Compound V-37]: the EC50 lay in the range of 5 to 25 µM.

In the case of `Nc1ncc(C2=NC(Cc3ccccc3Cl)C(=O)Nc3ccc(Cl)cc32)cn1` (stereo not drawn) [Compound V-20], the EC50 was 5 to 25 µM.

As for `O=C1Nc2ccc(Cl)cc2C(c2cn[nH]c2)=NC1Cc1ccc2ccccc2c1` (stereo not drawn) [Compound V-39], the EC50 is no more than 5 µM.

Molecule `O=C1Nc2ccc(Cl)cc2C(c2cnc3[nH]c(=O)[nH]c3c2)=NC1Cc1ccccc1Cl` (stereo not drawn) [Compound V-24] registered an EC50 of no more than 5 µM.

Turning to `O=C1Nc2ccc(Cl)cc2C(c2ccc(N3CCC(O)CC3)nc2)=NC1Cc1ccccc1Cl` (stereo not drawn) [Compound V-27], the EC50 is no more than 5 µM.

Consider `COCCNc1ccc(C2=NC(Cc3ccccc3Cl)C(=O)Nc3ccc(Cl)cc32)cn1` (stereo not drawn) [Compound V-33], for which the EC50 is 5 to 25 µM.

For `COCCNc1ccc(C2=N[C@@H](Cc3ccccc3Cl)C(=O)Nc3ccc(Cl)cc32)cn1` [Compound V-34], the EC50 is 5 to 25 µM.
